Assay results taken from US20230080054A1 (ILDONG PHARMACEUTICAL CO., LTD., priority 2021, published 2023).

Target: T1, human ANO6 (Homo sapiens, UniProt Q4KMQ2)
T1 construct: expressed in transfected cells
T1 sequence (Q4KMQ2 1-931 isoform Q4KMQ2-2): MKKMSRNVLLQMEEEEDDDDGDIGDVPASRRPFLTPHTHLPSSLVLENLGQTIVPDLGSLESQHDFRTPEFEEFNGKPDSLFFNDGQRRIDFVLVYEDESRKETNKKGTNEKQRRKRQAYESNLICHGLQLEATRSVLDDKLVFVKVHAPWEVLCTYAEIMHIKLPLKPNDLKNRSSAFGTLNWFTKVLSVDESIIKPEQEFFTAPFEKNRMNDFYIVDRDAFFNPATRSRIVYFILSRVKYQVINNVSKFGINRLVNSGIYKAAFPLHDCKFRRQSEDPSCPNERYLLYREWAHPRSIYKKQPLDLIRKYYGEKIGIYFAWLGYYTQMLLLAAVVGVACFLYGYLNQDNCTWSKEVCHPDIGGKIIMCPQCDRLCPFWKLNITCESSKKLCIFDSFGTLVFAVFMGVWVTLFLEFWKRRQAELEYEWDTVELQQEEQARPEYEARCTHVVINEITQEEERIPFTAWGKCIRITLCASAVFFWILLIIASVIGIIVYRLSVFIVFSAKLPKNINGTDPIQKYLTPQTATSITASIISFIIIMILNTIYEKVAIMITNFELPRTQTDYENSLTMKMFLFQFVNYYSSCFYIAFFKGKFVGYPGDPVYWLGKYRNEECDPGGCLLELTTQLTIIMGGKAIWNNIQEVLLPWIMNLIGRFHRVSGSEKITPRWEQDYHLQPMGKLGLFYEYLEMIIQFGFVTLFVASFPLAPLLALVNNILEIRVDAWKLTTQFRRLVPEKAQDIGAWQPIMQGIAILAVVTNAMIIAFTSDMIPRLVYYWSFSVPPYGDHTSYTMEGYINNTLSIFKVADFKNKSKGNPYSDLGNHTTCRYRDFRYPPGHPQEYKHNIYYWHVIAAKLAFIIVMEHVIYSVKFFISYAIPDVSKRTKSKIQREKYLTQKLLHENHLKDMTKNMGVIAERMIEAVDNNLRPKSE
Experiment: YFP quenching assay (ANO6 ion channel activity)
Assay type: cell-based
Conditions: 10 μM ionomycin; for inhibition at 1 µM: test compound 1 μM, read-out: Inhibition Level 1 μM; for inhibition at 30 µM: test compound 30 μM, read-out: Inhibition Level 30 μM
From the text: Example 3: YFP Quenching Assay
1. Materials and Instruments
Ionomycin (Alomonelab cat. #I-700), FLUOstar Omega microplate reader (BMG Labtech, Ortenberg, Germany), and MARS Data Analysis Software (BMG Labtech)
Fisher rat thyroid (FRT) cells stably expressing human ANO6 (GenBank accession no. NP_001191732.1, provided by J. H. Nam, Dongguk University College of Medicine, Korea) and halide sensor mutant YFP-H148Q/I152L/F46L) were constructed and grown in Dulbecco's modified Eagle's medium Nutrient Mixture F-12 (DMEM/F-12) supplemented 10% FBS, 100 units/mL penicillin, 500 μg/mL hygromycin B and 100 μg/mL neomycin.
Fisher rat thyroid (FRT) cells stably expressing human ANO6 and halide sensor mutant YFP (H148Q/I152L/F46L) were seeded in black walled 96 well plates and incubated in a 37° C., 5% CO2 incubator to reach about 100% cell confluency. Then, each well of the 96 well plates were washed for several times with phosphate buffered saline (PBS), and 50 μL of PBS was added to each well. Test compounds (100× in DMSO) were added to each well to be 1% v/v DMSO. After incubation for 10 minutes in 40° C., the 96 well plates were transferred to a plate reader, and YFP fluorescence changed by SCN-introduced into cells through activated ANO6 were measured by the following steps.
(1) YFP fluorescence signals were recorded in every 0.4 seconds.
(2) Basal YFP fluorescence signals were recorded for 1 second.
(3) 140 mM SCN-(50 μL) containing 10 μM ionomycin was injected to each well, and YFP fluorescence signals were recorded.
The inhibitory activity (%) of each of the test compounds was obtained by the following steps.
(1) Background signals were subtracted from recording values, and the resulting values were converted to relative percentages. The values at 0 second were set to be 100%.
(2) Differences between the values at 3.6 seconds and those of at 7.6 seconds were calculated.
(3) In each row of 96 well plate, the inhibitory activity of each of the test compounds was calculated as percentages. The inhibitory activity of a negative control group to which neither compounds nor ionomycin were treated was set to be 100%, and the inhibitory activity of a positive control group to which ionomycin was treated and compounds were not treated was set to be 0%.
(4) The assay was performed in duplicate or triplicate, and the results were averaged.

| SMILES | inhibition at 1 µM [%] | inhibition at 30 µM [%] |
| --- | --- | --- |
| Cc1ccc(CNC(=O)c2cccc(Nc3cccc(-c4ccccc4)c3)c2)o1 [Compound 88, 3-({[1,1′-biphenyl]-3-yl}amino)-N-[(5-methylfuran-2-yl)methyl]benzamide] | < 30 | – |
| CC(C)(C)NC(=O)c1cccc(Nc2ccc(-c3ccccc3)nn2)c1 [Compound 65, N-tert-butyl-3-[(6-phenylpyridazin-3-yl)amino]benzamide] | 30 to 60 | – |
| CCN(CC)CCNC(=O)c1cccc(Nc2ncc(-c3ccccc3)cn2)c1 [Compound 96, N-[2-(diethylamino)ethyl]-3-[(5-phenylpyrimidin-2-yl)amino]benzamide] | < 30 | – |
| O=C(NC1CCOCC1)c1cccc(Nc2ccc(-c3ccccc3)nn2)c1 [Compound 28, N-(oxan-4-yl)-3-[(6-phenylpyridazin-3-yl)amino]benzamide] | < 30 | ≥ 60 |
| CN(C)CCNC(=O)c1cccc(Nc2ncc(-c3ccccc3)cn2)c1 [Compound 95, N-[2-(dimethylamino)ethyl]-3-[(5-phenylpyrimidin-2-yl)amino]benzamide] | < 30 | – |
| CCc1ccc(Nc2cccc(C(=O)NCc3ccc(C)o3)c2)nn1 [Compound 84, 3-[(6-ethylpyridazin-3-yl)amino]-N-[(5-methylfuran-2-yl)methyl]benzamide] | < 30 | – |
| Cc1ccc(CNC(=O)c2cccc(Nc3ncc(-c4ccccc4)nn3)c2)o1 [Compound 12, N-[(5-methylfuran-2-yl)methyl]-3-[(6-phenyl-1,2,4-triazin-3-yl)amino]benzamide] | 30 to 60 | 30 to 60 |
| O=C(NCc1cccnc1)c1cccc(Nc2ccc(-c3ccccc3)nn2)c1 [Compound 20, 3-[(6-phenylpyridazin-3-yl)amino]-N-[(pyridin-3-yl)methyl]benzamide] | 30 to 60 | ≥ 60 |
| Cc1ccc(CNC(=O)c2cccc(Nc3ccc(-c4ccncc4)nn3)c2)o1 [Compound 9, N-[(5-methylfuran-2-yl)methyl]-3-{[6-(pyridin-4-yl)pyridazin-3-yl]amino}benzamide] | < 30 | ≥ 60 |
| O=C(NCC1COC1)c1cccc(Nc2ccc(-c3ccccc3)nn2)c1 [Compound 35, N-[(oxetan-3-yl)methyl]-3-[(6-phenylpyridazin-3-yl)amino]benzamide] | < 30 | ≥ 60 |
| Cc1ccc(CNC(=O)c2cccc(Nc3ccc(C4CCOCC4)nn3)c2)o1 [Compound 49, N-[(5-methylfuran-2-yl)methyl]-3-{[6-(oxan-4-yl)pyridazin-3-yl]amino}benzamide] | < 30 | – |
| O=C(NCCCc1ccccc1)c1cccc(Nc2ncc(-c3ccccc3)cn2)c1 [Compound 55, N-(3-phenylpropyl)-3-[(5-phenylpyrimidin-2-yl)amino]benzamide] | ≥ 60 | – |
| O=C(NCc1ccncc1)c1cccc(Nc2ccc(-c3ccccc3)nn2)c1 [Compound 18, 3-[(6-phenylpyridazin-3-yl)amino]-N-[(pyridin-4-yl)methyl]benzamide] | < 30 | 30 to 60 |
| Cc1ccc(CNC(=O)c2cccc(Nc3ccc(-c4ccco4)nn3)c2)o1 [Compound 8, 3-{[6-(furan-2-yl)pyridazin-3-yl]amino}-N-[(5-methylfuran-2-yl)methyl]benzamide] | 30 to 60 | ≥ 60 |
| O=C(NC1COC1)c1cccc(Nc2ccc(-c3ccccc3)nn2)c1 [Compound 26, N-(oxetan-3-yl)-3-[(6-phenylpyridazin-3-yl)amino]benzamide] | 30 to 60 | ≥ 60 |
| Cc1ccc(CNC(=O)c2cccc(Nc3ccc(-c4ccccn4)nn3)c2)o1 [Compound 23, N-[(5-methylfuran-2-yl)methyl]-3-{[6-(pyridin-2-yl)pyridazin-3-yl]amino}benzamide] | < 30 | ≥ 60 |
| Cc1ccc(CNC(=O)c2cccc(Nc3nnccc3C)c2)o1 [Compound 48, N-[(5-methylfuran-2-yl)methyl]-3-[(4-methylpyridazin-3-yl)amino]benzamide] | < 30 | – |
| Cc1ccc(CNC(=O)c2cccc(Nc3ccc(C4CCOC4)nn3)c2)o1 (stereo not drawn) [Compound 87, N-[(5-methylfuran-2-yl)methyl]-3-{[6-(oxolan-3-yl)pyridazin-3-yl]amino}benzamide] | < 30 | – |
| Cc1ccc(CNC(=O)c2cccc(Nc3ccc(CCc4ccc(F)cc4)nn3)c2)o1 [Compound 77, 3-({6-[2-(4-fluorophenyl)ethyl]pyridazin-3-yl}amino)-N-[(5-methylfuran-2-yl)methyl]benzamide] | < 30 | – |
| CN1CCN(CCNC(=O)c2cccc(Nc3ncc(-c4ccccc4)cn3)c2)CC1 [Compound 97, N-[2-(4-methylpiperazin-1-yl)ethyl]-3-[(5-phenylpyrimidin-2-yl)amino]benzamide] | < 30 | – |
| Cc1ccc(CNC(=O)c2cccc(Nc3ccc(C4CCNCC4)nn3)c2)o1 [Compound 71, N-[(5-methylfuran-2-yl)methyl]-3-{[6-(piperidin-4-yl)pyridazin-3-yl]amino}benzamide] | < 30 | – |
| CCOC(=O)c1cccc(-c2cnc(Nc3cccc(C(=O)NCc4ccc(C)o4)c3)nc2)c1 [Compound 101, ethyl 3-{2-[(3-{[(5-methylfuran-2-yl)methyl]carbamoyl}phenyl)amino]pyrimidin-5-yl}benzoate] | < 30 | – |

Next, values leading:

| inhibition at 1 µM [%] | inhibition at 30 µM [%] | SMILES |
| --- | --- | --- |
| 30 to 60 | – | CCN(CC)c1ccc(CNC(=O)c2cccc(Nc3ncc(-c4cccc(F)c4)cn3)c2)cc1 [Compound A81] |
| – | 30 to 60 | Cc1ccc(-c2ccc(Nc3cccc(C(=O)NCc4ccc(Cl)cc4)c3)nn2)cc1 [Compound A28] |
| – | 30 to 60 | COc1ccc(CNC(=O)c2cccc(Nc3ccc(-c4ccc(F)cc4)nn3)c2)c(OC)c1 [Compound A9] |
| 30 to 60 | – | O=C(NC1CCCc2ccccc21)c1cccc(Nc2ncc(-c3cccc(F)c3)cn2)c1 (stereo not drawn) [Compound A82] |
| – | < 30 | Cc1ccc(CNC(=O)c2cccc(Nc3ccnc(-c4cccc(F)c4)n3)c2)o1 [Compound A21] |
| 30 to 60 | ≥ 60 | Cc1ccc(CNC(=O)c2cccc(Nc3ccc(-c4cccc(F)c4)nn3)c2)cc1 [Compound A25] |
| 30 to 60 | ≥ 60 | COc1cccc(CNC(=O)c2cccc(Nc3ccc(-c4ccc(F)cc4)nn3)c2)c1 [Compound A29] |
| 30 to 60 | ≥ 60 | Cc1ccc(-c2ccc(Nc3cccc(C(=O)NCC(C)C)c3)nn2)cc1 [Compound A33] |
| 30 to 60 | ≥ 60 | Cc1ccc(-c2ccc(Nc3cccc(C(=O)NC(C)C)c3)nn2)cc1 [Compound A31] |
| – | 30 to 60 | COc1ccccc1NC(=O)c1cccc(Nc2ccc(-c3ccccc3)nn2)c1 [Compound A71] |
| 30 to 60 | ≥ 60 | COc1cccc(C(C)NC(=O)c2cccc(Nc3ccc(-c4ccccc4)nn3)c2)c1 (stereo not drawn) [Compound A79] |
| – | 30 to 60 | Cc1ccc(-c2ccc(Nc3cccc(C(=O)NCc4ccc(F)cc4)c3)nn2)cc1 [Compound A23] |
